Assay results taken from patent US6784201B2, “Benzothiepines having activity as inhibitors of ileal bile acid transport and taurocholate uptake” (G.D. Searle & Company, priority 1994, dated 2004).
Counter-ions that a name gives are not always drawn. Like-named read-outs stand apart in the source and are kept apart here.

Columns and labels:
H14 cells = test: In vitro assay of uptake of [14C]-alanine; type: cell-based, hamster
Procedure: Baby hamster kidney cells (BHK) transfected with the cDNA of human IBAT (H14 cells) are seeded at 60,000 cells/well in 96 well Top-Count tissue culture plates for assays run within in 24 hours of seeding, 30,000 cells/well for assays run within 48 hours, and 10,000 cells/well for assays run within 72 hours.
On the day of assay, the cell monolayer is gently washed once with 100 μl assay buffer (Dulbecco's Modified Eagle's medium with 4.5 g/L glucose+0.2% (w/v) fatty acid free bovine serum albumin-(FAF)BSA). To each well 50 μl of a two-fold concentrate of test compound in assay buffer is added along with 50 μl of 6 μM [^14C]-taurocholate in assay buffer (final concentration of 3 μM [^14C]-taurocholate). The cell culture plates are incubated 2 hours at 37° C. prior to gently washing each well twice with 100 μl 4° C. Dulbecco's phosphate-buffered saline (PBS) containing 0.2% (w/v) (FAF)BSA. The wells are then gently washed once with 100 μl 4° C. PBS without (FAF)BSA. To each 200 μl of liquid scintillation counting fluid is added, the plates are heat sealed and shaken for 30 minutes at room temperature prior to measuring the amount of radioactivity in each well on a Packard Top-Count instrument.
In Vitro Assay of Compounds that Inhibit Uptake of [^14C3-Alanine
The alanine uptake assay is performed in an identical fashion to the taurocholate assay, with the exception that labeled alanine is substituted for the labeled taurocholate.

human IBAT = molecular target: T1, human IBAT (Homo sapiens, UniProt Q12908); test: In vitro assay of IBAT-mediated uptake of [14C]-taurocholate (TC) in H14 cells; type: cell-based
T1 construct: expressed in transfected cells; host or cells: Baby hamster kidney (BHK) cells, clone H14
T1 sequence (Q12908 1-348): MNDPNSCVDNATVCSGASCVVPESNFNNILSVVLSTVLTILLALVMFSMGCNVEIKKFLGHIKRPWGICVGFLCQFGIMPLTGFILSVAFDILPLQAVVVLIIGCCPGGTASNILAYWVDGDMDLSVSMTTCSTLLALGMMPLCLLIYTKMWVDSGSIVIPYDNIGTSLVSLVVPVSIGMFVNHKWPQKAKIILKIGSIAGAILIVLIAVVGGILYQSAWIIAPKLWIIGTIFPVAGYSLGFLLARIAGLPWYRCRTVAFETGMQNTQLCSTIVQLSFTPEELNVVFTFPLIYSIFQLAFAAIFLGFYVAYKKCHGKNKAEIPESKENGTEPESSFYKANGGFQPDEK
Procedure, shortened: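 BHK cells stably expressing human IBAT (H14) were incubated 2 h at 37° C with compound and 3 μM final [14C]-taurocholate in DMEM (4.5 g/L glucose) plus 0.2% fatty acid-free BSA. After cold PBS washes, cell-associated radioactivity was measured by scintillation counting.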

fecal bile acid (FBA) = test: Rat gavage assay (fecal bile acid increase); type: in vivo
Procedure: Male Wister rats (275-300 g) are administered IBAT inhibitors using an oral gavage procedure. Drug or vehicle (0.2% Tween 80 in water) is administered once a day (9:00-10:0 a.m.) for 4 days at varying dosages in a final volume of 2 mL per kilogram of body weight. Total fecal samples are collected during the final 48 hours of the treatment period and analyzed for bile acid content using an enzymatic assay as described below. Compound efficacy is determined by comparison of the increase in fecal bile acid (FBA) concentration in treated rats to the mean FBA concentration of rats in the vehicle group.
Measurement of Fecal Bile Acid Concentration (FBA)
Total fecal output from individually housed hamsters was collected for 24 or 48 hours, dried under a stream of nitrogen, pulverized and weighed. Approximately 0.1 gram was weighed out and extracted into an organic solvent (butanol/water). Following separation and drying, the residue was dissolved in methanol and the amount of bile acid present was measured enzymatically using the 3α-hydroxysteroid steroid dehydrogenase reaction with bile acids to reduce NAD. (Reference: Mashige, F., et al. (1981) Clin. Chem. 27, 1352).

[1] = H14 cells, Table 5, read-out: IC50 uM (In vitro Taurocholate Cell Uptake)
[2] = In Vitro Taurocholate Uptake, Table 10, read-out: Human TC IC50

SMILES | melting point [°C] | IC50 (human IBAT; [1]) [µM] | IC50 (human IBAT; [2]) [µM] | further results
CCCCC1(CCCC)CS(=O)(=O)c2ccc(N(C)C)cc2[C@@H](c2cccc(NC(=O)OCCC[N+]34CCN(CC3)CC4)c2)[C@H]1O.[Cl-] | 218 to 225 |  |  | 
O=S1(=O)CC2(CCCCC2)[C@@H](O)[C@@H](c2ccccc2)c2ccccc21 (relative stereo) [Example 60, cis-4-Hydroxy-5-phenyl-2,3,4,5-tetrahydro spiro(benzothiepine-3,1′-cyclohexane)-1,1-dioxide] |  | 9 |  | inhibition at 100 µM (H14 cells; Mesocricetus auratus): 59%
CCCCC1(CC)C=C(c2ccccc2)c2ccccc2S(=O)(=O)C1 (stereo not shown) [Example 7, 3-Butyl-3-ethyl-5-phenyl-2,3-dihydrobenzothiepine-1,1-dioxide] |  | 50 |  | inhibition at 100 µM (H14 cells; Mesocricetus auratus): 49.3%
CCCC[C@]1(CC)CS(=O)(=O)c2cc(O)ccc2[C@H](c2ccccc2)[C@@H]1O [Example 27, (3α,4α,5α) 3-Butyl-3-ethyl-4,8-dihydroxy-5-phenyl-2,3,4,5-tetrahydrobenzothiepine-1,1-dioxide] |  |  |  | inhibition at 20 µM (H14 cells; Mesocricetus auratus): 7%
CCCCCCNc1ccc2c(c1)[C@@H](c1ccccc1)[C@@H](O)[C@](CC)(CCCC)CS2(=O)=O [Example 41, (3α,4β,5β) 3-Butyl-3-ethyl-7-(n-hexylamino)-4-hydroxy-5-phenyl-2,3,4,5-tetrahydrobenzothiepine-1,1-dioxide] |  | 2 |  | inhibition at 20 µM (H14 cells; Mesocricetus auratus): 0%
CCCC[C@]1(CC)CS(=O)(=O)c2ccccc2[C@@H](c2ccc(C(=O)OC)cc2)[C@H]1O [Example 43, (3α,4β,5β) 3-Butyl-5-(4-carbomethoxyphenyl)-3-ethyl-4-hydroxy-2,3,4,5-tetrahydrobenzothiepine-1,1-dioxide] |  | 1.5 |  | inhibition at 25 µM (H14 cells; Mesocricetus auratus, 25 μM): 16%
CCCC[C@]1(CC)CS(=O)(=O)c2ccc(OC)cc2[C@H](c2ccccc2)[C@@H]1O [Example 48, (3α,4α,5α) 3-Butyl-3-ethyl-4-hydroxy-7-methoxy-5-phenyl-2,3,4,5-tetrahydrobenzothiepine-1,1-dioxide] |  | 2 |  | inhibition at 20 µM (H14 cells; Mesocricetus auratus): 22%
CCCCC1(CCCC)CS(=O)(=O)c2ccc(N(C)C)cc2[C@@H](c2ccc(OCc3ccc(C[n+]4ccccc4)cc3)cc2)[C@H]1O.[Cl-] [Example 1425, (4R-cis)-1-[[4-[[4-[3,3-Dibutyl-7-(dimethylamino)-2,3,4,5-tetrahydro-4-hydroxy-1,1-dioxido-1-benzothiepin-5-yl]phenoxy]methyl]phenyl]methyl]-pyridinium chloride] |  |  | 0.002 | Delta (micromoles fecal bile acid per day) (fecal bile acid (FBA); dose 5 mg/kg/day): 91.8 micromoles fecal bile acid per day; Delta (micromoles fecal bile acid per day) (fecal bile acid (FBA); dose .04 mg/kg/day): 66.4 micromoles fecal bile acid per day; Delta (micromoles fecal bile acid per day) (fecal bile acid (FBA); dose .2 mg/kg/day): 100. micromoles fecal bile acid per day

Now from value to molecule, other results behind:

melting point [°C] | IC50 (human IBAT; [1]) [µM] | IC50 (human IBAT; [2]) [µM] | SMILES | further results
246 to 248 |  |  | CCCCC1(CCCC)CS(=O)(=O)c2ccc(N(C)C)cc2[C@@H](c2cccc(NC(=O)Nc3cccc(C[N+]45CCN(CC4)CC5)c3)c2)[C@H]1O.[Cl-] | 
136 |  |  | CCCCC1(CCCC)CS(=O)(=O)c2ccc(N(C)C)cc2[C@@H](c2ccc(OCCCCC[n+]3cccc4ccccc43)cc2)[C@H]1O (as salt: methanesulfonate) [Example 1412, (4R-cis)-1-[5-[4-[3,3-Dibutyl-7-(dimethylamino)-2,3,4,5-tetrahydro-4-hydroxy-1,1-dioxido-1-benzothiepin-5-yl]phenoxy]pentyl]quinolinium, methanesulfonate (Salt)] | 
178 to 182 |  | 0.003 | CCCCC1(CCCC)CS(=O)(=O)c2ccc(N(C)C)cc2[C@@H](c2ccc(OCCCCC[N+](C)(C)CCCCCC[N+](C)(C)CCCCCOc3ccc([C@@H]4c5cc(N(C)C)ccc5S(=O)(=O)CC(CCCC)(CCCC)[C@@H]4O)cc3)cc2)[C@H]1O (relative stereo) [Example 1419, [4R-[4a,5a(4R*,5R*)]]-N,N′-bis[5-[4-[3,3-Dibutyl-7-(dimethylamino)-2,3,4,5-tetrahydro-4-hydroxy-1,1-dioxido-1-benzothiepin-5-yl]phenoxy]pentyl]-N,N,N′N′-tetramethyl-1,6-hexanediaminium dichloride] | Delta (micromoles fecal bile acid per day) (fecal bile acid (FBA); dose 2 mg/kg/day): 28.5 micromoles fecal bile acid per day; Delta (micromoles fecal bile acid per day) (fecal bile acid (FBA); dose .016 mg/kg/day): 5.8 micromoles fecal bile acid per day; Delta (micromoles fecal bile acid per day) (fecal bile acid (FBA); dose .08 mg/kg/day): 10.3 micromoles fecal bile acid per day; Delta (micromoles fecal bile acid per day) (fecal bile acid (FBA); dose .4 mg/kg/day): 13.9 micromoles fecal bile acid per day
 | 7 |  | CCCCC1(CC)CS(=O)(=O)c2ccccc2C(=C2CCCCC2)C1O (stereo not shown) [Example 10a, 3-Butyl-3-ethyl-4-hydroxy-5-cyclohexylidine--2,3,4,5-tetrahydrobenzothiepine-1,1-dioxide] | % Inhibition of Alanine Uptake @ 100 uM (H14 cells; 100 uM): 77.6%
 | 8 |  | CCCCC1(CC)CS(=O)(=O)c2cc(OCC)ccc2C(c2ccccc2)C1O (stereo not shown) [Example 28] | inhibition at 20 µM (H14 cells; Mesocricetus auratus): 31%
 | 3 |  | CCCC[C@]1(CC)CS(=O)(=O)c2ccc(NO)cc2[C@H](c2ccccc2)[C@@H]1O [Example 37, (3α,4α,5α) 3-Butyl-3-ethyl-4-hydroxy-7-hydroxyamino-5-phenyl-2,3,4,5-tetrahydrobenzothiepine-1,1-dioxide] | inhibition at 5 µM (H14 cells; Mesocricetus auratus, 5 μM): 0%
180 to 181 |  |  | CCC1(CC)CS(=O)(=O)c2ccc(NC(=O)OCc3ccccc3)cc2[C@@H](c2ccccc2)[C@H]1O [Example 286] | IC50 (human IBAT; read-out: Human TC IC50): 19 µM
108 to 110 |  | 0.021 | CCCCC1(CCCC)CS(=O)(=O)c2ccc(N(C)C)cc2[C@@H](c2ccc(OCCCCS(N)(=O)=O)cc2)[C@H]1O [Example 1405] | 
67 to 72.5 |  | 0.003 | CCCCC1(CCCC)CS(=O)(=O)c2ccc(N(C)C)cc2[C@@H](c2ccc(OCCCCCNC(=N)N)cc2)[C@H]1O [Example 1422, (4R-cis)-[5-[4-[3,3-Dibutyl-7-(dimethylamino)-2,3,4,5-tetrahydro-4-hydroxy-1,1-dioxido-1-benzothiepin-5-yl]phenoxy]pentyl]guanidine] | 
 |  | 0.003 | CCCCC1(CCCC)CS(=O)(=O)c2ccc(N(C)C)cc2[C@@H](c2ccc(OCCCCCNCC(=O)O)cc2)[C@H]1O [Example 1423, (4R-cis)-N-[5-[4-[3,3-Dibutyl-7-(dimethylamino)-2,3,4,5-tetrahydro-4-hydroxy-1,1-dioxido-1-benzothiepin-5-yl]phenoxy]pentyl]glycine] | Delta (micromoles fecal bile acid per day) (fecal bile acid (FBA); dose 2 mg/kg/day): 56.5 micromoles fecal bile acid per day; Delta (micromoles fecal bile acid per day) (fecal bile acid (FBA); dose .016 mg/kg/day): 14.4 micromoles fecal bile acid per day; Delta (micromoles fecal bile acid per day) (fecal bile acid (FBA); dose .08 mg/kg/day): 35.3 micromoles fecal bile acid per day; Delta (micromoles fecal bile acid per day) (fecal bile acid (FBA); dose .4 mg/kg/day): 69.3 micromoles fecal bile acid per day
156 to 159 |  | 0.014 | CCCCC1(CCCC)CS(=O)(=O)c2ccc(N(C)C)cc2[C@@H](c2ccc(OCc3ccc(C(=O)O)cc3)cc2)[C@H]1O [Example 1424, (4R-cis)-4-[[4-[3,3-Dibutyl-7-(dimethylamino)-2,3,4,5-tetrahydro-4-hydroxy-1,1-dioxido-1-benzothiepin-5-yl]phenoxy]methyl]benzoic acid] | 
